The supplement of paper PMC10307832

How the values were obtained:
Experiment in all cases: relative viability (nuclei count vs DMSO), 5 days (fraction); higher = more cells survive
[1] = system: NCI-H1975
In short: (§1)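 Relative viability divides the nuclei count in treated wells by that in vehicle wells. Lung cancer cell lines were seeded in 1536-well plates, dosed by pin tool the next day, and fixed and stained after 5 days in one step with final 0.05% Triton X-100, 1% formaldehyde and 1 ug/ml Hoechst. Dosing was a single drug or a fixed anchor-drug dose plus five library-drug doses (not always all listed) in √10 steps, and values are medians of duplicate plates imaged at 4×.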

[2] = system: HCC-44
In short: as §1

[3] = system: H3255
In short: as §1

[4] = system: NCI-H1666
In short: as §1

[5] = system: EPLC-272H
In short: as §1

[6] = system: LCLC-97TM1
In short: as §1

[7] = system: NCI-H647
In short: as §1

[8] = system: LOU-NH91
In short: as §1

[9] = system: BEN
In short: as §1

[10] = system: COR-L 105
In short: as §1

[11] = system: PC-3 [JPC-3]
In short: as §1

Q: Which relative viability ([1]; first compound 0.1 µM) does the source give for O=c1cc(N2CCOCC2)oc2c(-c3cccc4c3sc3ccccc34)cccc12 + Cc1nc(NC(=O)N2CCC[C@H]2C(N)=O)sc1-c1ccnc(C(C)(C)C(F)(F)F)c1 [Alpelisib] (partner 2 µM) here?
A: 0.649

Q: And the relative viability ([1]; first compound 0.3162 µM)?
A: 0.621

Q: And the relative viability ([1]; first compound 1 µM)?
A: 0.608

Q: And the relative viability ([2]; first compound 0.01 µM)?
A: 0.841

Q: And the relative viability ([2]; first compound 0.03162 µM)?
A: 0.841

Q: And the relative viability ([2]; first compound 0.1 µM)?
A: 0.826

Q: And the relative viability ([2]; first compound 0.3162 µM)?
A: 0.708

Q: What about the relative viability ([2]; first compound 1 µM) of the same molecule?
A: 0.697

Q: What about the relative viability ([3]; first compound 0.01 µM) of the same molecule?
A: 0.681

Q: And the relative viability ([3]; first compound 0.03162 µM)?
A: 0.698

Q: And the relative viability ([3]; first compound 0.1 µM)?
A: 0.784

Q: And the relative viability ([3]; first compound 0.3162 µM)?
A: 0.685

Q: And the relative viability ([3]; first compound 1 µM)?
A: 0.768

Q: What about the relative viability ([4]; first compound 0.01 µM) of the same molecule?
A: 0.936

Q: And the relative viability ([4]; first compound 0.03162 µM)?
A: 0.864

Q: What about the relative viability ([4]; first compound 0.1 µM) of the same molecule?
A: 0.977

Q: And the relative viability ([4]; first compound 0.3162 µM)?
A: 0.963

Q: What about the relative viability ([4]; first compound 1 µM) of the same molecule?
A: 0.832

Q: What about the relative viability ([5]; first compound 0.01 µM) of the same molecule?
A: 0.955

Q: And the relative viability ([5]; first compound 0.03162 µM)?
A: 0.957

Q: What about the relative viability ([5]; first compound 0.3162 µM) of the same molecule?
A: 1.03

Q: And the relative viability ([5]; first compound 1 µM)?
A: 0.891

Q: And the relative viability ([6]; first compound 0.01 µM)?
A: 0.287

Q: And the relative viability ([6]; first compound 0.03162 µM)?
A: 0.269

Q: And the relative viability ([6]; first compound 0.3162 µM)?
A: 0.201

Q: What about the relative viability ([6]; first compound 1 µM) of the same molecule?
A: 0.244

Q: What about the relative viability ([7]; first compound 0.01 µM) of the same molecule?
A: 1.18

Q: And the relative viability ([7]; first compound 0.03162 µM)?
A: 1.2

Q: What about the relative viability ([7]; first compound 0.1 µM) of the same molecule?
A: 1.24

Q: And the relative viability ([7]; first compound 0.3162 µM)?
A: 1.11

Q: And the relative viability ([7]; first compound 1 µM)?
A: 0.913

Q: And the relative viability ([8]; first compound 0.01 µM)?
A: 0.656

Q: And the relative viability ([8]; first compound 0.03162 µM)?
A: 0.698

Q: And the relative viability ([8]; first compound 0.1 µM)?
A: 0.726

Q: What about the relative viability ([8]; first compound 0.3162 µM) of the same molecule?
A: 0.759

Q: What about the relative viability ([8]; first compound 1 µM) of the same molecule?
A: 0.69

Q: What about the relative viability ([9]; first compound 0.01 µM) of the same molecule?
A: 0.946

Q: And the relative viability ([9]; first compound 0.03162 µM)?
A: 1.16

Q: What about the relative viability ([9]; first compound 0.1 µM) of the same molecule?
A: 0.951

Q: What about the relative viability ([9]; first compound 0.3162 µM) of the same molecule?
A: 0.951

Q: And the relative viability ([9]; first compound 1 µM)?
A: 1.05

Q: What about the relative viability ([10]; first compound 0.01 µM) of the same molecule?
A: 1.1

Q: What about the relative viability ([10]; first compound 0.03162 µM) of the same molecule?
A: 0.933

Q: What about the relative viability ([10]; first compound 0.1 µM) of the same molecule?
A: 0.834

Q: What about the relative viability ([10]; first compound 0.3162 µM) of the same molecule?
A: 1.06

Q: What about the relative viability ([10]; first compound 1 µM) of the same molecule?
A: 0.838

Q: What about the relative viability ([11]; first compound 0.01 µM) of the same molecule?
A: 1.01

Q: And the relative viability ([11]; first compound 0.03162 µM)?
A: 1.05

Q: And the relative viability ([11]; first compound 0.1 µM)?
A: 1.02

Q: What about the relative viability ([11]; first compound 0.3162 µM) of the same molecule?
A: 1.02

Q: What about the relative viability ([11]; first compound 1 µM) of the same molecule?
A: 1.04
